# Experimental data: patent US9169260B2 (MERCK SHARP & DOHME CORP., priority 2011, dated 2015)
# Target: GST tagged IRAK-4 (Homo sapiens (Human), UniProt Q9NWZ3)
# Assay: IRAK-4 Kinase Assay (IMAP fluorescence polarization)
# Format: biochemical
# Details: not given
# Method in brief: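 Activity was read by IMAP fluorescence polarization, where phosphopeptide binding to M(III) nanoparticles raises FP. The 30-minute, 25° C reaction used 100 μM ATP, 100 nM RP7030 substrate and 0.5 nM GST-IRAK-4 in pH 7.2 Tris buffer with MgCl2, DTT and Tween 20.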
# Sequence of GST tagged IRAK-4 (Q9NWZ3 whole entry): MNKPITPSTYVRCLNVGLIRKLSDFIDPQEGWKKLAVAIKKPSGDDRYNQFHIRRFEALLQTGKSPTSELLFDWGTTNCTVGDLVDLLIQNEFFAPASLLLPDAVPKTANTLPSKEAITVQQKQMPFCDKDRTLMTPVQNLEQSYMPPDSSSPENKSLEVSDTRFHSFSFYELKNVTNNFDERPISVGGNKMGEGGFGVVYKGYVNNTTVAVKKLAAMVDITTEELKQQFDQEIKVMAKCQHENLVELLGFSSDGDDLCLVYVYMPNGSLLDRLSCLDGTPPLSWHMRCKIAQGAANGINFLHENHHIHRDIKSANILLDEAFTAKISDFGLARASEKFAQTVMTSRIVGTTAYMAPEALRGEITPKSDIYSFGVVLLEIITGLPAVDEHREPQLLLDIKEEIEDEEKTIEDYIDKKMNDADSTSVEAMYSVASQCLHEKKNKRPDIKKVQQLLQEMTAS
row,Structure (SMILES),IC50 [µM]
1,"Cc1ccc(-n2nc(C3CCN(S(C)(=O)=O)CC3)cc2NC(=O)c2cnn3cccnc23)cn1 [Example 168, N-(1-(6-methylpyridin-3-yl)-3-(1-(methylsulfonyl)piperidin-4-yl)-1H-pyrazol-5-yl)pyrazolo[1,5-a]pyrimidine-3-carboxamide]",< 1

# Same assay, conditions: 100 μM ATP, 30 minutes at 25° C.
row,Structure (SMILES),IC50 [µM]
1,"CN1CCC(c2cc(NC(=O)c3cnn4cccnc34)n(-c3ccc(C4CC4)cn3)n2)CC1 [Example 147, N-(1-(5-cyclopropylpyridin-2-yl)-3-(1-methylpiperidin-4-yl)-1H-pyrazol-5-yl)pyrazolo[1,5-a]pyrimidine-3-carboxamide]",< 0.1
2,"CS(=O)(=O)N1CCC(c2cc(NC(=O)c3cnn4cccnc34)n(-c3ccc(C4CC4)cn3)n2)CC1 [Example 149, N-(1-(5-cyclopropylpyridin-2-yl)-3-(1-(methylsulfonyl)piperidin-4-yl)-1H-pyrazol-5-yl)pyrazolo[1,5-a]pyrimidine-3-carboxamide]",< 0.1
3,"CNS(=O)(=O)c1ccc(-c2cc(NC(=O)c3cnn4cccnc34)n(-c3ccc(C4CC4)cn3)n2)cc1 [Example 151, N-(1-(5-cyclopropylpyridin-2-yl)-3-(4-(N-methylsulfamoyl)phenyl)-1H-pyrazol-5-yl)pyrazolo[1,5-a]pyrimidine-3-carboxamide]",< 0.1
4,"Cc1ccc(-n2nc(C3CCNCC3)cc2NC(=O)c2cnn3cccnc23)nc1 [Example 152, N-(1-(5-methylpyridin-2-yl)-3-(piperidin-4-yl)-1H-pyrazol-5-yl)pyrazolo[1,5-a]pyrimidine-3-carboxamide]",< 0.1
5,"Cc1ccc(-n2nc(C3CCN(S(C)(=O)=O)CC3)cc2NC(=O)c2cnn3cccnc23)nc1 [Example 153, N-(1-(5-methylpyridin-2-yl)-3-(1-(methylsulfonyl)piperidin-4-yl)-1H-pyrazol-5-yl)pyrazolo[1,5-a]pyrimidine-3-carboxamide]",< 0.1
6,"[2H]C([2H])([2H])c1ccc(-n2nc(C3CCN(S(C)(=O)=O)CC3)cc2NC(=O)c2cnn3cccnc23)nc1 [Example 155, N-(1-(5-trideuteromethylpyridin-2-yl)-3-(1-(methylsulfonyl)piperidin-4-yl)-1H-pyrazol-5-yl)pyrazolo[1,5-a]pyrimidine-3-carboxamide]",< 0.1
7,"CC(C)(CN)c1ccc(-n2nc(C3CCN(S(C)(=O)=O)CC3)cc2NC(=O)c2cnn3cccnc23)nc1 [Example 158, N-(1-(5-(1-amino-2-methylpropan-2-yl)pyridin-2-yl)-3-(1-(methylsulfonyl)piperidin-4-yl)-1H-pyrazol-5-yl)pyrazolo[1,5-a]pyrimidine-3-carboxamide]",< 0.1
8,"CC(C)(N)c1ccc(-n2nc(C3CCN(S(C)(=O)=O)CC3)cc2NC(=O)c2cnn3cccnc23)nc1 [Example 159, N-(1-(5-(2-aminopropan-2-yl)pyridin-2-yl)-3-(1-(methylsulfonyl)piperidin-4-yl)-1H-pyrazol-5-yl)pyrazolo[1,5-a]pyrimidine-3-carboxamide]",< 0.1
9,"C[C@@H](N)c1ccc(-n2nc(C3CCN(S(C)(=O)=O)CC3)cc2NC(=O)c2cnn3cccnc23)nc1 [Example 163, (R)—N-(1-(5-(1-aminoethyl)pyridin-2-yl)-3-(1-(methylsulfonyl)piperidin-4-yl)-1H-pyrazol-5-yl)pyrazolo[1,5-a]pyrimidine-3-carboxamide]",< 0.1
10,"C[C@H](N)c1ccc(-n2nc(C3CCN(S(C)(=O)=O)CC3)cc2NC(=O)c2cnn3cccnc23)nc1 [Example 164, (S)—N-(1-(5-(1-aminoethyl)pyridin-2-yl)-3-(1-(methylsulfonyl)piperidin-4-yl)-1H-pyrazol-5-yl)pyrazolo[1,5-a]pyrimidine-3-carboxamide]",< 0.1
11,"CS(=O)(=O)N1CCC(c2cc(NC(=O)c3cnn4cccnc34)n(-c3ccc(C=O)cn3)n2)CC1 [Example 165, N-(1-(5-formylpyridine-2-yl)-3-(1-(methylsulfonyl)piperidin-4-yl)-1H-pyrazol-5-yl)pyrazolo[1,5-a]pyrimidine-3-carboxamide]",< 0.1

# The remaining lines, values ahead:
row,IC50 [µM],Structure (SMILES)
1,< 0.1,"Cc1cnc(-n2nc(C3CCN(S(C)(=O)=O)CC3)cc2NC(=O)c2cnn3cccnc23)nc1 [Example 170, N-(1-(5-methylpyrimidin-2-yl)-3-(1-(methylsulfonyl)piperidin-4-yl)-1H-pyrazol-5-yl)pyrazolo[1,5-a]pyrimidine-3-carboxamide]"
2,< 0.1,"CC1(c2cc(NC(=O)c3cnn4cccnc34)n(-c3ccc(CN)cn3)n2)CC1 [Example 176, N-(1-(5-(aminomethyl)pyridin-2-yl)-3-(1-methylcyclopropyl)-1H-pyrazol-5-yl)pyrazolo[1,5-a]pyrimidine-3-carboxamide]"

# Same assay, conditions: 100 μM ATP, 30 minutes at 25° C.; μM
row,Structure (SMILES),IC50 [µM]
1,"O=C(Nc1cc(C2CCN(S(=O)(=O)C3CC3)CC2)nn1-c1ccc(C2CC2)cn1)c1cnn2cccnc12 [Example 150, N-(1-(5-cyclopropylpyridin-2-yl)-3-(1-(cyclopropylsulfonyl)piperidin-4-yl)-1H-pyrazol-5-yl)pyrazolo[1,5-a]pyrimidine-3-carboxamide]",< 1
2,"NC(=O)c1ccc(-n2nc(C3CCNCC3)cc2NC(=O)c2cnn3cccnc23)nc1 [Example 160, N-(1-(5-carbamoylpyridin-2-yl)-3-(piperidin-4-yl)-1H-pyrazol-5-yl)pyrazolo[1,5-a]pyrimidine-3-carboxamide]",< 1
3,"Cc1ccc(-n2nc(C3COCCN3)cc2NC(=O)c2cnn3cccnc23)nc1 (stereo not shown) [Example 166, N-(1-(5-methylpyridin-2-yl)-3-(morpholin-3-yl)-1H-pyrazol-5-yl)pyrazolo[1,5-a]pyrimidine-3-carboxamide]",< 1

# Other lines, results leading:
row,IC50 [µM],Structure (SMILES)
1,> 1,"Cc1ccc(-n2nc(C3CCNCC3)cc2NC(=O)c2cnn3cccnc23)cn1 [Example 167, N-(1-(6-methylpyridin-3-yl)-3-(piperidin-4-yl)-1H-pyrazol-5-yl)pyrazolo[1,5-a]pyrimidine-3-carboxamide]"
2,< 1,"Cc1cnc(-n2nc(C3CCN(S(=O)(=O)C4CC4)CC3)cc2NC(=O)c2cnn3cccnc23)nc1 [Example 171, N-(3-(1-(cyclopropylsulfonyl)piperidin-4-yl)-1-(5-methylpyrimidin-2-yl)-1H-pyrazol-5-yl)pyrazolo[1,5-a]pyrimidine-3-carboxamide]"
3,< 1,"CS(=O)(=O)N1CCC(c2cc(NC(=O)c3cnn4cccnc34)n(-c3ccccn3)n2)CC1 [Example 173, N-(3-(1-(methylsulfonyl)piperidin-4-yl)-1-(pyridin-2-yl)-1H-pyrazol-5-yl)pyrazolo[1,5-a]pyrimidine-3-carboxamide]"
4,< 1,"Cc1ccc(-n2nc(C3CCN(S(C)(=O)=O)CC3)cc2NC(=O)c2cnn3cccnc23)nc1C [Example 174, N-(1-(5,6-dimethylpyridin-2-yl)-3-(1-(methylsulfonyl)piperidin-4-yl)-1H-pyrazol-5-yl)pyrazolo[1,5-a]pyrimidine-3-carboxamide]"
5,< 1,"Cc1nn(C)c2nc(-n3nc(C4CCN(S(C)(=O)=O)CC4)cc3NC(=O)c3cnn4cccnc34)ccc12 [Example 175, N-(1-(1,3-dimethyl-1H-pyrazolo[3,4-b]pyridin-6-yl)-3-(1-(methylsulfonyl)piperidin-4-yl)-1H-pyrazol-5-yl)pyrazolo[1,5-a]pyrimidine-3-carboxamide]"
